Data taken from ChEMBL document CHEMBL1201862, “PubChem BioAssay data set” (2004).
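All cell lines were grown in 96-well plates and treated with compound for 48 hours. At the GI50, growth is halved.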 Active and inactive are the calls of the source. Cut-off read from the data, not from the text of the source: active = GI50 up to about 1.1 µM and inactive = higher.

What was measured:
Experiment in all cases: NCI anticancer screen, dose series, 48 h
[1] = system: DLD-1
[2] = system: DMS-273
[3] = system: RXF 631
[4] = system: DMS-114
[5] = system: M19-MEL
[6] = system: HOP-18
[7] = system: KM-20L2
[8] = system: LXFL 529
[9] = system: XF498

SMILES | GI50 [1] | GI50 [2] | GI50 [3] | GI50 [4] | GI50 [5] | GI50 [6] | GI50 [7] | GI50 [8] | GI50 [9]
CCCCCCc1cc(C(=O)Nc2cccc(C(F)(F)F)c2)nc(N)n1 | > 100 µM (inactive) | > 100 µM (inactive) | > 100 µM (inactive) | > 100 µM (inactive) | > 100 µM (inactive) | > 100 µM (inactive) | > 100 µM (inactive) | > 100 µM (inactive) | –
C/C(=N\O)c1sc(-n2nc(-c3ccccc3)cc2-c2ccccc2)nc1C | 11.5 µM (inactive) | 22.5 µM (inactive) | 14.8 µM (inactive) | 12.4 µM (inactive) | 13.3 µM (inactive) | > 10 µM (inactive) | 11.5 µM (inactive) | 11.7 µM (inactive) | > 10 µM (inactive)
O=C(Nc1ccccc1-c1nn(CO)c(=S)n(CO)c1=O)C(F)(F)F | 95.7 µM (inactive) | > 100 µM (inactive) | – | > 100 µM (inactive) | – | – | – | > 100 µM (inactive) | > 100 µM (inactive)
COc1cc(CC(C(=O)O)C(=O)O)c(OC)cc1CC(C(=O)O)C(=O)O | > 100 µM (inactive) | > 100 µM (inactive) | – | > 100 µM (inactive) | > 100 µM (inactive) | – | > 100 µM (inactive) | > 100 µM (inactive) | > 100 µM (inactive)
COc1c2c(cc3nc4ccccc4nc13)CCC(C(C)(C)O)C2 (stereo unspecified) | > 100 µM (inactive) | 63.4 µM (inactive) | – | – | > 100 µM (inactive) | 86.5 µM (inactive) | > 100 µM (inactive) | > 100 µM (inactive) | > 100 µM (inactive)
O=C1OC(c2ccccc2)=N/C1=C/C=C/c1ccco1 | > 100 µM (inactive) | – | > 100 µM (inactive) | > 100 µM (inactive) | > 100 µM (inactive) | – | > 100 µM (inactive) | > 100 µM (inactive) | > 100 µM (inactive)
CC(C)=CC(C(O)c1ccccc1)S(=O)(=O)c1nccn1C (stereo unspecified) | > 100 µM (inactive) | > 100 µM (inactive) | > 100 µM (inactive) | > 100 µM (inactive) | > 100 µM (inactive) | > 100 µM (inactive) | > 100 µM (inactive) | > 100 µM (inactive) | > 100 µM (inactive)
COc1ccc(/C=C2/CCCC/C2=N/O)cc1 | 67.5 µM (inactive) | 42.7 µM (inactive) | > 100 µM (inactive) | 42.6 µM (inactive) | > 100 µM (inactive) | > 100 µM (inactive) | > 100 µM (inactive) | 66.8 µM (inactive) | –
COc1ccc(/C=c2\sc3n(c2=O)C(N)=C(C#N)C(c2ccc(OC)cc2)C=3c2nc3ccccc3[nH]2)cc1 (stereo unspecified) | > 10 µM (inactive) | 33.4 µM (inactive) | – | 30.8 µM (inactive) | 28.7 µM (inactive) | – | 42.2 µM (inactive) | – | –
Cc1nn(C)cc1P(=S)(c1ccccc1)c1ccccc1 | 51.4 µM (inactive) | 31.6 µM (inactive) | – | 30.9 µM (inactive) | 59.3 µM (inactive) | > 100 µM (inactive) | > 100 µM (inactive) | 51.3 µM (inactive) | > 100 µM (inactive)
CCOC(=O)C(=O)Nc1ccc(Cl)c(C(F)(F)F)c1 | > 100 µM (inactive) | > 100 µM (inactive) | > 100 µM (inactive) | > 100 µM (inactive) | > 100 µM (inactive) | > 100 µM (inactive) | > 100 µM (inactive) | > 100 µM (inactive) | –
O=C1C(O)=C(CN(CCCl)CCCl)C(=O)c2ccccc21 | 44.3 µM (inactive) | – | 87.9 µM (inactive) | – | 54.6 µM (inactive) | – | 28.7 µM (inactive) | 48.3 µM (inactive) | > 100 µM (inactive)
CCCCN(C)CC(C(C)=O)C(c1ccccc1)c1c(O)c2ccccc2oc1=O (stereo unspecified) | > 100 µM (inactive) | > 100 µM (inactive) | – | > 100 µM (inactive) | > 100 µM (inactive) | > 100 µM (inactive) | > 100 µM (inactive) | > 100 µM (inactive) | > 100 µM (inactive)
O=C1c2c(nc3ccccc3c2-c2ccccc2)CN1Nc1ccccc1 | > 100 µM (inactive) | – | – | > 100 µM (inactive) | > 100 µM (inactive) | – | > 100 µM (inactive) | > 100 µM (inactive) | > 100 µM (inactive)
COC(=O)C1=C(c2ccc3c(c2)OCO3)OC(c2ccc3c(c2)OCO3)C1 (stereo unspecified) | > 100 µM (inactive) | > 100 µM (inactive) | > 100 µM (inactive) | 30.1 µM (inactive) | > 100 µM (inactive) | 69.7 µM (inactive) | > 100 µM (inactive) | 38.4 µM (inactive) | > 100 µM (inactive)
O=C1c2ccccc2NC1(c1ccccc1)c1c(-c2ccccc2)[nH]c2ccccc12 (stereo unspecified) | 9.2 µM (inactive) | 6.84 µM (inactive) | 9.73 µM (inactive) | 15.3 µM (inactive) | 24.3 µM (inactive) | 44.8 µM (inactive) | 25.1 µM (inactive) | 20.4 µM (inactive) | 44 µM (inactive)
NCCCN(CCCN)CCCNCc1c2ccccc2c(CNCCCN(CCCN)CCCN)c2ccccc12 | 14.7 µM (inactive) | 6.08 µM (inactive) | 16 µM (inactive) | – | 7.59 µM (inactive) | 6.73 µM (inactive) | 25.2 µM (inactive) | 10.5 µM (inactive) | 17.1 µM (inactive)
COC/C=C\COC | > 100 µM (inactive) | > 100 µM (inactive) | > 100 µM (inactive) | > 100 µM (inactive) | > 100 µM (inactive) | > 100 µM (inactive) | > 100 µM (inactive) | > 100 µM (inactive) | > 100 µM (inactive)
CN1CCN(C)C12C=c1ccccc1=CC21CC1 | 26.4 µM (inactive) | 57 µM (inactive) | 53.6 µM (inactive) | 18.2 µM (inactive) | 19.3 µM (inactive) | > 75 µM (inactive) | 27.3 µM (inactive) | 17.1 µM (inactive) | 23.9 µM (inactive)
CCCCCCCCCc1cc(=O)c2ccc(O)cc2o1 | > 100 µM (inactive) | 46.8 µM (inactive) | 46.2 µM (inactive) | 11.3 µM (inactive) | > 100 µM (inactive) | > 100 µM (inactive) | > 100 µM (inactive) | 41.7 µM (inactive) | 86.5 µM (inactive)
c1ccc2c(c1)C1CCCCCC21N1CCOCC1 (stereo unspecified) | 84.5 µM (inactive) | 67.1 µM (inactive) | – | 38.8 µM (inactive) | > 100 µM (inactive) | – | > 100 µM (inactive) | 50 µM (inactive) | –
O=S(=O)(O)c1cc(/N=N/c2cc(S(=O)(=O)O)c3cccnc3c2O)ccc1/C=C/c1ccc(/N=N/c2cc(S(=O)(=O)O)c3cccnc3c2O)cc1S(=O)(=O)O | > 100 µM (inactive) | > 100 µM (inactive) | > 100 µM (inactive) | > 100 µM (inactive) | > 100 µM (inactive) | > 100 µM (inactive) | > 66.5 µM (inactive) | > 100 µM (inactive) | > 100 µM (inactive)
COc1cc(C2c3cc4c(cc3[C@@H](OCCN(C)C)C3COC(=O)[C@H]23)OCO4)cc(OC)c1O (stereo partly specified) | 1.03 µM (active) | 0.052 µM (active) | 0.0655 µM (active) | – | – | 0.42 µM (active) | 0.855 µM (active) | 2.79 µM (inactive) | 0.239 µM (active)
COc1c(Cl)c2c(c(OC)c1OC)-c1ccc(OC)c(=O)c(Cl)c1C(NC(C)=O)CC2 (stereo unspecified) | 0.345 µM (active) | 0.116 µM (active) | 0.473 µM (active) | 0.224 µM (active) | 0.262 µM (active) | – | 0.12 µM (active) | 0.243 µM (active) | 0.34 µM (active)
Cn1c(=O)nc2n(-c3cc(C(F)(F)F)cc(C(F)(F)F)c3)c3ccccc3nc-2c1=O | – | 45.7 µM (inactive) | – | 26.3 µM (inactive) | 13.8 µM (inactive) | – | > 100 µM (inactive) | – | > 100 µM (inactive)
CC(C)C1=Cc2ccc3c(c2C(=O)C1=O)CCCC3 | 1 µM (active) | 2.21 µM (inactive) | 9.91 µM (inactive) | 1.16 µM (inactive) | 2.9 µM (inactive) | 3.51 µM (inactive) | 19.1 µM (inactive) | 1.08 µM (active) | 2.15 µM (inactive)
O=C1C2C3C=CC(C2C(=O)N1CN1CCOCC1)C1C2C(=O)N(CN4CCOCC4)C(=O)C2C31 (stereo unspecified) | 40.4 µM (inactive) | 18.2 µM (inactive) | 11.5 µM (inactive) | 16.2 µM (inactive) | 22.9 µM (inactive) | 22.1 µM (inactive) | 27.4 µM (inactive) | 19.6 µM (inactive) | –
